In publication PMC11571207, “Stereorandomized Oncocins with Preserved Ribosome Binding and Antibacterial Activity” (Journal of Medicinal Chemistry, 2024):
Where “and” joins values, the source holds several entries; their conditions need not be identical. Identical values can stand only once. Entries after “also recorded” stand apart in the source; their conditions may differ. No end group written: not given here.

What was measured:
[1] = test system: E. coli BW25113 sbmA::kan; settings: Table S1, sbmA::kan mutant, 16-20 h at 37 °C; for MIC E. coli BW25113 SbmA-, 12.5% MH: 12.5% Müller-Hinton medium pH 7.4
Method: (§1) Minimum inhibitory concentration assay
(§2) Antimicrobial activity was assayed against P. aeruginosa PAO1, K. pneumoniae NCTC418, E. coli W3110, A. baumannii ATCC 19606, methicillin-resistant S. aureus COL (MRSA), and for selected peptides on P. aeruginosa PA14 and the polymyxin-B-resistant derivative PA14 2P4, as well as the clinical isolates ZEM-1A and ZEM9A, K. pneumoniae OXA-48, S. aureus Newman, Enterobacter cloacae and Burkholderia cenocepacia. The minimal inhibitory concentration (MIC) was determined by using broth microdilution method. A colo ny of bacteria was picked and grown in Luria-Bertani (LB) medium overnight at 37°C. For E. coli BW25113 sbmA::kan the medium was supplemented with 25 mg/L of kanamycin. The next day, the culture was then regrown in LB medium to log phase (OD600 = 0.6 to 0.8), which lasted approximately 4 h, and diluted to an OD600 of 0.022 in the desired medium. Stock solutions of 1 mg/mL of the samples were prepared in sterilized milliQ water and diluted to the beginning concentration of 64 μg/mL in 300 μL Mueller Hinton (MH)-medium. The diluted samples were added to first well of 96-well microtiter plate (TPP, untreated, Faust Laborbedarf, AG, Schaffhausen) and diluted serially by ½. Finally, 4 μL of the bacterial suspension was inoculated into the sample solutions (150 μL/well) with a final inoculation of about 5∙10^5 CFU/mL. The plates were then incubated at 37°C for 15-18h. For each assay, sterility (broth only) and growth control (broth with bacterial inoculum, without antibiotics) were checked with two columns in the plate. The next day, 15 μL of 3-(4,5-dimethylthiazol-2-yl)-2,5-diphenyltetrazolium bromide (MTT) was added to each well of the plate, such a way that MIC was defined as the lowest concentration of the peptide that inhibited visible growth of the tested […]
(§3) Table S1. Activity of stereorandomized and diastereomeric oncocins against E. coli BW25113 WT and BW25113 sbmA::kan mutant in full and 12.5% MH, at pH 7.4. […]
(§4) a) Minimum inhibitory concentration (MIC, μg/mL) was determined on E. coli BW25113 WT and […]

E. coli BW25113 WT = settings: Table S1, 16-20 h at 37 °C; for MIC E. coli BW25113 WT, 12.5% MH: 12.5% Müller-Hinton medium pH 7.4; for MIC E. coli BW25113 WT, Full MH: full Müller-Hinton medium pH 7.4
Method: as §1, §2, §3, §4

[2] = test system: E. coli ribosome, U2506 of the 23S rRNA; test: Ribosome footprinting (CMCT modification of U2506); type: binding; settings: 1 μM peptide, 10.5 μM CMCT, purified E. coli ribosomes (5 pmol), 25 °C; primer extension, sequencing gel
Method: A 5 mL culture of E. coli MG1655 (WT-cells) was grown in LB overnight (220 rpm, 37 °C). One liter LB medium was inoculated, and bacteria were grown to OD = 0.6 (220 rpm. 37 °C); cells were centrifuged in centrifuge bottles, and the pellet was resuspended in ice-cold water and transferred in 50 mL falcon tubes. Falcon tubes were centrifuged, the supernatant was removed, the pellet was resuspended in 15 mL polysome buffer (TRIS/HCl pH 7.5 20 mM, NH4Cl 100 mM, MgCl2 10 mM, EDTA 0.5 mM, β-mercaptoethanol 60 mM), frozen dropwise in N2 (l), and stored at −80 °C. The cells were ground in CryoMil with the standard program (1 min precooling, 2 min grinding 5/s, 2 min cooling, 2 min grinding 5/s). The powder was transferred in 50 mL falcon tubes containing N2 (l) and stored at −80 °C. The lysates were thawed with a water bath (30 °C), put on ice, transferred to precooled Eppendorf tubes, and centrifuged (5000 g, 2 min, 4 °C). The clear lysate was transferred to new precooled tubes, centrifuged (14 000 g, 10 min, 4 °C), and the supernatant was transferred to new precooled tubes. 300 mL of clear lysate was loaded on a 10–50% sucrose gradient in CMCT buffer (K-borate buffer pH 8 80 mM, MgCl2 25 mM, NH4Cl 100 mM) and ultracentrifuged (3 h, 234 050 g, 4 °C). The fractions containing monosomes and polysomes were collected and ultracentrifuged overnight (16 h, 260 800 g, 4 °C). The supernatant was discarded, and the pellet was washed with ice-cold CMCT buffer. The ribosomes were resuspended in 100 μL CMCT buffer with a mini magnetic stirring bar and stored on ice. The concentration of ribosomes was measured in 1/200 dilution in water.
Ribosomes (5 pmol) were mixed with 8 μL of CMCT buffer, the compound of interest 1 μM, and water to a final volume of 20 μL in a precooled tube and incubated at 25 °C for 10 min. 20 μL of CMCT (10.5 μM) in water was added and incubated at 25 °C for 30 min. The reaction was stopped with 160 μL of EDTA (30 μM), and the samples were stored on ice.
160 μL portion of RNA resuspension buffer and 40 μL of 10% SDS were added, and the samples were vigorously resuspended. 400 μL of prewarmed acid phenol was added, and the samples were incubated on a thermomixer (5 min, 1200 rpm, 65 °C). The samples were put on ice for 5 min and centrifuged (5 min, 14 000 g, RT). The watery phase was transferred to a new precooled tube, 400 μL of phenol–chloroform–isoamyl alcohol (4 °C) was added, and the samples were mixed (5 min, 1200 rpm, RT). The samples were centrifuged again (5 min, 14 000g, RT), and the watery phase was transferred to another precooled tube. 34 μL of 3 M NaOAc pH 5.5, 0.8 μL of Glycoblue and 400 μL of isopropanol were added, and the samples were incubated for 3 h at −80 °C. The samples were then centrifuged (40 min, 21 000g, 4 °C), and the pellet was washed with ice-cold 70% EtOH. The residual liquid was removed, and the samples were dried (5 min, 37 °C). The samples were resuspended in 20 μL of water, the concentration was measured, and the samples were −80 °C.
Primers designed to probe the positions 2506 of the 23S rRNA (5-[sequence]-3′) were labeled with radioactive phosphate (γ^32 P-ATP). […] To prepare primers for one reaction, 1 μL of primer (0.3 μM), 0.4 μL of 5× PNK-buffer, 0.25 μL of water, 0.2 μL of γ^32 P-ATP, and 0.15 μL of T4 PNK were mixed and incubated at 37 °C.

DnaK = target: T1, DnaK (Escherichia coli, UniProt P0A6Y8); test: Microscale thermophoresis with His-Tag-labeled DnaK; type: binding; settings: MST buffer
T1 construct: made in house; host or cells: E. coli BL21(DE3), pET28a T7 vector (synthetic gene, GenScript)
T1 sequence (P0A6Y8 whole entry, species assumed): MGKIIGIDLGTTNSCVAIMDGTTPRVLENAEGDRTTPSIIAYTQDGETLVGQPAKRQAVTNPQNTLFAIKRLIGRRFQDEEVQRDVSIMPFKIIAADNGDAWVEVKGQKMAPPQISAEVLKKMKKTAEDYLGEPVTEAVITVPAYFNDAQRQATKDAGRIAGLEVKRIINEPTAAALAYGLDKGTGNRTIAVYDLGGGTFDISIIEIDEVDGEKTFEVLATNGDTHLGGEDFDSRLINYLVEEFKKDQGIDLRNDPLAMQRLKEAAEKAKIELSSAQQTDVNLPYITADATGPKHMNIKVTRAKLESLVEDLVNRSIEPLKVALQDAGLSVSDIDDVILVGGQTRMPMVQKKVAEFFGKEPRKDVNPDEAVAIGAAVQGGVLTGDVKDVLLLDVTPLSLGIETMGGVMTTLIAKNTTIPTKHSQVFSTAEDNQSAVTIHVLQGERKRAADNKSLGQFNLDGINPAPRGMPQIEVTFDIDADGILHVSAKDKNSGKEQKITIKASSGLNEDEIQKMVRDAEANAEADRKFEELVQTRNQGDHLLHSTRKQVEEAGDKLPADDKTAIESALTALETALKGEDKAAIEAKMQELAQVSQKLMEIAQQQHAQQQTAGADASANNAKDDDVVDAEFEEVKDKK
Method: A plasmid containing the DnaK insert was designed in SnapGene and ordered commercially as a synthetic gene (Figure S11). Chemically competent BL21(DE3) cells were transformed with the plasmid vector (GenScript), and positive transformants were selected on LB + Kanamycin agar. For protein expression, 6 mL of overnight cultures inoculated with a single colony were used to initiate shake-flask expression at 300 mL scale in LB + kanamycin ([…]) + 1 mM IPTG. The flasks were cultured overnight at 220 rpm, 37 °C, and the bacteria were harvested by centrifugation the next day. Pelleted cells were stored at −20 °C. […] The collected fractions were analyzed by SDS-PAGE. […]
DnaK labeling was performed using the Nanotemper Monolith His-Tag Labeling Kit RED-tris-NTA Second Generation. […] The fluorescence variation between the samples was measured in 4 replicates with the Monolith NT.115 device in Monolith NT.115 Premium Capillaries and analyzed with the MOcontrol software (Figures S13–S15).
To each sample, 10 μL of 40 nM His-Tag-labeled DnaK was added, resulting in a final volume of 20 μL per sample. The fluorescence variations between the samples were measured by using the Monolith NT.115 device with Monolith NT.115 Premium Capillaries. The data were analyzed with MOcontrol software to determine the binding affinity between L-onc and His-Tag-labeled DnaK (Figure S16).

| Substance | MIC E. coli BW25113 SbmA-, 12.5% MH [1] | MIC E. coli BW25113 SbmA-, Full MH ([1]; full Müller-Hinton medium pH 7.4) | MIC E. coli BW25113 WT, 12.5% MH (E. coli BW25113 WT) | MIC E. coli BW25113 WT, Full MH (E. coli BW25113 WT) | Protection of U2506 of 23S rRNA from CMCT modification (band at C2507) [2] | DnaK binding check (DnaK; 20 nM His-Tag-labeled DnaK, 50 μM peptide, 4 replicates) | Kd (DnaK; 2-fold serial dilution from 100 μM, His-Tag-labeled DnaK, read-out: KD, apparent binding to DnaK) |
| --- | --- | --- | --- | --- | --- | --- | --- |
| VDKPPYLPRPRPPRRIYNR [sr-Onc] (VDKPPYLPRPRPPRRIYNR-NH2; also: all 19 residues stereorandomized (1:1 L/D mixture)) [fully stereorandomized oncocin] | 8 to 16 mg/L | > 64 mg/L | 8 mg/L | > 64 mg/L | did not protect U2506 from CMCT modification | negative for binding; also recorded: no detectable binding to DnaK |  |
| VDKPPYLPRPRPPRRIYNR-NH2 [L-Onc, reference compound] | 8 mg/L |  | 4 mg/L | 16 to 32 mg/L |  |  | 29.8 µM and ~30 µM |
